Experimental data taken from patent US20020150968A1, “Glycoconjugate and sugar nucleotide synthesis using solid supports” (priority 2001, published 2002).
Read-outs that look alike come from different tables or passages of the source.

Assays:
[1] = biological target: spHAS (Streptococcus pyogenes, UniProt P0C0H0); settings: cited from earlier work
[2] = more active than morphine; cited from earlier work
[3] = tested on: Sucrose synthase II; settings: cited from earlier work
[4] = tested on: UDP-GalNAc pyrophosphorylase; settings: substrate of UDP-GalNAc pyrophosphorylase; cited from earlier work
[5] = biological target: T1, CMP-NeuNAc synthetase (Escherichia coli O18:K1:H7, UniProt P13266); settings: enzyme purified from E. coli K1; read-out: apparent Km; cited from earlier work
T1 construct: host or cells: E. coli K1
T1 sequence (P13266 whole entry): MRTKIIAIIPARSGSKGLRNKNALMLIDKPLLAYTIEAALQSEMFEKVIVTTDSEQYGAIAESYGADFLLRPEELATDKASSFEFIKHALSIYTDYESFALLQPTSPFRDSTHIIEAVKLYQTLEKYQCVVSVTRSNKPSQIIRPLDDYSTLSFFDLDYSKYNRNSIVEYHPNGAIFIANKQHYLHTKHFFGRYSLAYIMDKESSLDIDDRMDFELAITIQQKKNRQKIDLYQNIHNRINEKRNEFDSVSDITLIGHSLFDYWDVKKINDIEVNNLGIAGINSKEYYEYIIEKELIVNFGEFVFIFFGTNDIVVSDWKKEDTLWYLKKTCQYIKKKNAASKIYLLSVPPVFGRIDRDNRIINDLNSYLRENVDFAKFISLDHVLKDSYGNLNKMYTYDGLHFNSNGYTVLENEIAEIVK

[6] = biological target: GalU (Escherichia coli, UniProt P0AEP3); assay: Enzymatic activity assay for GalU (two-step, UDP-glucose dehydrogenase coupled); assay type: biochemical, E. coli
Chain of GalU (P0AEP3 whole entry): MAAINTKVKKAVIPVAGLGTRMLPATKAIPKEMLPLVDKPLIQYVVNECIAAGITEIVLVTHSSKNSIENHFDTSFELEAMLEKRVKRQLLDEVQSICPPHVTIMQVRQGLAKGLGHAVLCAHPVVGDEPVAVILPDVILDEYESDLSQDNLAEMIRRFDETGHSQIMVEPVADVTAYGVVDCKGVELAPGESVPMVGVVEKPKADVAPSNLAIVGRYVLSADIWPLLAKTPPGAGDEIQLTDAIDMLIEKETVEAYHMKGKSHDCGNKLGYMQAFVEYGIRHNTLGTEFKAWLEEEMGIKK
Method: A two-step assay was carried out to detect the GalU activity. In the first step, GalU catalyzed reactions were performed at room temperature (24° C.) for 15 min in a final volume of 250 μl containing 1.6 mM Glc-1-P, 2.8 mM UTP, 10 mM MgCl2 and 100 μl enzyme solution. A blank was performed with water replacing Glc-1-P. The reaction was stopped by adding cold NaCl solution (0.5 ml, 0.15 M) and immediately transferring the tube to a boiling water bath for 5 min to terminate the reaction. The contents of the tubes were cooled to room temperature and vortexed vigorously to break up the coagulum. After centrifuge at 1400×g for 15 min, the clear supernatant (0.2 ml) was subjected to the UDP-glucose assay in a cuvette with a total volume of 1 ml containing 0.03 M Tris-acetate buffer, pH 8.7, 1.36 mM NAD, 0.2 ml sample (supernatant from the previous procedure) and 3.2 mU UDP-glucose dehydrogenase. The OD change at 340 nm was monitored by a UV spectrophotometer (HP 8453 Spectrophotometer, Hewlett-Packard Corn.).

[7] = tested on: GalT; assay: Enzymatic activity assay for GalT (two-step, UDP-glucose dehydrogenase coupled); assay type: biochemical, E. coli
Method: This was a two-step assay. In the first step, GalT catalyzed reactions were performed at room temperature (24° C.) for 15 min in a final volume of 250 μl HEPES buffer (100 mM, pH 7.4) containing 1.6 mM Gal-1-P, 2.8 mM UDP-glucose, and 100 μl of enzyme solution. A blank was performed with water replacing Gal-1-P. The reaction was stopped by adding cold NaCl solution (0.5 ml, 0.15 M) and immediately transferring the tube to a boiling water bath for 5 min to terminate the reaction. The contents of the tubes were cooled to room temperature and vortexed vigorously to break up the coagulum. After centrifugation at 1400×g for 15 min, the clear supernatant (0.2 ml) was subjected to the UDP-glucose assay in a cuvette with a total volume of 1 ml containing 0.03 M Tris-acetate buffer, pH 8.7, 1.36 mM NAD, 0.2 ml sample (supernatant from the previous procedure) and 3.2 mU UDP-glucose dehydrogenase. The OD change at 340 nm was monitored by a UV spectrophotometer (HP 8453 Spectrophotometer, Hewlett-Packard Corn.).

[8] = 25 ml lysate per 1 L cell culture
[9] = purified His-tagged enzyme, 1 U = 1 μmole product per minute at 24° C.

Chain of spHAS (P0C0H0 whole entry): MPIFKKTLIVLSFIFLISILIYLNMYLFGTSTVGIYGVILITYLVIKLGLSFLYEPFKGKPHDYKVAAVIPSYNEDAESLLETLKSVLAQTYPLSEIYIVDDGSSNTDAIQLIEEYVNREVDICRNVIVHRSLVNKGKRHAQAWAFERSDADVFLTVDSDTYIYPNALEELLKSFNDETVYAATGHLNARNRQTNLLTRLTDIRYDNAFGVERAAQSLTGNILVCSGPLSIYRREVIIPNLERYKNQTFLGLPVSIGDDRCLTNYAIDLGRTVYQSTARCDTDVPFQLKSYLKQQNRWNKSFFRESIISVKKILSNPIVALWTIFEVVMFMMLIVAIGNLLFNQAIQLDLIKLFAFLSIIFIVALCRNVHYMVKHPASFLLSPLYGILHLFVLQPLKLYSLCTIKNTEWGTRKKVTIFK

CC(=O)N[C@H]1[C@@H](OP(=O)(O)OP(=O)(O)OC[C@H]2O[C@@H](n3ccc(=O)[nH]c3=O)[C@H](O)[C@@H]2O)O[C@H](CO)[C@@H](O)[C@@H]1O [UDP-GlcNAc, uridine 5′-diphospho-N-acetylglucosamine]
Km [1]: 149 ± 3 µM

CN1CC[C@]23c4c5ccc(O)c4O[C@H]2[C@@H](O[C@@H]2O[C@H](C(=O)O)[C@@H](O)[C@H](O)[C@H]2O)C=C[C@H]3[C@H]1C5 [morphine-6-O-glucuronide]
activity relative to morphine [2]: 50 times

Nc1ncnc2c1ncn2[C@@H]1O[C@H](COP(=O)(O)OP(=O)(O)OP(=O)(O)O)[C@@H](O)[C@H]1O [ATP, adenosine 5′-triphosphate]
effect on enzyme activity ([3]; both directions, in the presence of uridine substrate (UDP-Glc or UDP)): strong inhibition

[Mg+2] [Mg^2+]
effect on enzyme activity ([3]; sucrose-cleavage direction): little effect

[Mn+2] [Mn^2+]
effect on enzyme activity ([3]; sucrose-cleavage direction): strongly inhibited

CC(=O)NC1C(OP(=O)(O)O)OC(CO)C(O)C1O (stereo not shown) [GlcNAc-1-P]
Km [4]: 1100 µM

Nc1ccn([C@@H]2O[C@H](COP(=O)(O)OP(=O)(O)OP(=O)(O)O)[C@@H](O)[C@H]2O)c(=O)n1 [CTP, Cytosine 5′-triphosphate]
Km [5]: 310 µM

CC(=O)N[C@H]1C(OP(=O)(O)O)O[C@H](CO)[C@H](O)[C@@H]1O (stereo partly shown) [GalNAc-1-P, N-acetylgalactosamine-1-phosphate]
Km [4]: 290 µM

O=C(O)[C@H]1O[C@H](OP(=O)(O)OP(=O)(O)OC[C@H]2O[C@@H](n3ccc(=O)[nH]c3=O)[C@H](O)[C@@H]2O)[C@H](O)[C@@H](O)[C@@H]1O [UDP-GlcA, uridine 5′-diphosphoglucuronic acid]
Km [1]: 40 ± 4 µM

B1: GalU: glucose-1-phosphate uridylyltransferase, E. coli, N-terminal six-histidine tag (protein, UniProt P0AEP3 2-302, looked up)
UTP--glucose-1-phosphate …: AAINTKVKKAVIPVAGLGTRMLPATKAIPKEMLPLVDKPLIQYVVNECIAAGITEIVLVTHSSKNSIENHFDTSFELEAMLEKRVKRQLLDEVQSICPPHVTIMQVRQGLAKGLGHAVLCAHPVVGDEPVAVILPDVILDEYESDLSQDNLAEMIRRFDETGHSQIMVEPVADVTAYGVVDCKGVELAPGESVPMVGVVEKPKADVAPSNLAIVGRYVLSADIWPLLAKTPPGAGDEIQLTDAIDMLIEKETVEAYHMKGKSHDCGNKLGYMQAFVEYGIRHNTLGTEFKAWLEEEMGIKK
modifications: N-terminal His6 tag
notes: glucose-1-phosphate uridylyltransferase, E. coli, N-terminal six-histidine tag
activity of enzyme in the cell lysate [6, 8]: 100 U/L
specific activity [6, 9]: 10 U/mg

B2: GalT: galactose-1-phosphate uridylyltransferase, E. coli, N-terminal six-histidine tag (protein, UniProt P09148 1-348, looked up)
Galactose-1-phosphate …: MTQFNPVDHPHRRYNPLTGQWILVSPHRAKRPWQGAQETPAKQVLPAHDPDCFLCAGNVRVTGDKNPDYTGTYVFTNDFAALMSDTPDAPESHDPLMRCQSARGTSRVICFSPDHSKTLPELSVAALTEIVKTWQEQTAELGKTYPWVQVFENKGAAMGCSNPHPHGQIWANSFLPNEAEREDRLQKEYFAEQKSPMLVDYVQRELADGSRTVVETEHWLAVVPYWAAWPFETLLLPKAHVLRITDLTDAQRSDLALALKKLTSRYDNLFQCSFPYSMGWHGAPFNGEENQHWQLHAHFYPPLLRSATVRKFMVGYEMLAETQRDLTAEQAAERLRAVSDIHFRESGV
modifications: N-terminal His6 tag
notes: galactose-1-phosphate uridylyltransferase, E. coli, N-terminal six-histidine tag
activity of enzyme in the cell lysate [7, 8]: 100 U/L
specific activity [7, 9]: 5 U/mg
